Patent US5880158A, “Propionamide anticonvulsants” (Research Corporation Tech., Inc., priority 1997, dated 1999)

Legend:
[1] = tested on: male albino Cartworth Farms No. 1 mice; assay: maximal electroshock seizure (MES) test in mice; format: in vivo; conditions: intraperitoneal; for ED50: Mus musculus, ip, at time of peak effect, numbers in parentheses 95% confidence intervals
Protocol: (§1) Activity was established using the electrical (maximal electroshock or MES) test. In the MES test, a drop of electrolyte solution with anesthetic (0.5% butacaine hemisulfate in 0.9% sodium chloride) was used in the eyes of the animals prior to positioning the corneal electrodes and delivery of current. A 60 cycle alternating current was administered for 0.2 sec. at 50 mA. Protection endpoints were defined as the abolition of the hind limb tonic extensor component of the induced seizure. In mice, the effects of compounds on forced spontaneous motor activity were determined using the rotorod test. […] Normally under these conditions, a mouse can maintain its balance almost indefinitely. In the mouse identification screening study all compounds were given at three dose levels (30, 100, 300 mg/kg) and two time periods (0.5, 4h). Typically, in the MES seizures test one animal was used at 30 mg/kg and 300 mg/kg, and three animals at 100 mg/kg. In the rotorod toxicity test four animals were used at 30 mg/kg, and 300 mg/kg, and eight animals at 100 mg/kg. If activity was found at 30 mg/kg, then lower dosages were used to find the ED50 values.

[2] = tested on: male albino Cartworth Farms No. 1 mice; assay: rotorod test, neurologic toxicity in mice; format: in vivo; conditions: intraperitoneal, at time of peak effect, numbers in parentheses 95% confidence intervals
Protocol: as §1

[3] = tested on: male albino Cartworth Farms No. 1 mice; assay: protective index (TD50/ED50), rotorod versus MES in mice; conditions: for protective index (in words): compared with phenytoin, phenobarbital and valproate
From the text: Compounds were screened under the auspices of the National Institutes of Health for anticonvulsant activity in male albino Cartworth Farms No. 1 mice (ip route). Activity was established using the electrical (maximal electroshock or MES) test. In the MES test, a drop of electrolyte solution with anesthetic (0.5% butacaine hemisulfate in 0.9% sodium chloride) was used in the eyes of the animals prior to positioning the corneal electrodes and delivery of current. A 60 cycle alternating current was administered for 0.2 sec. at 50 mA. Protection endpoints were defined as the abolition of the hind limb tonic extensor component of the induced seizure. In mice, the effects of compounds on forced spontaneous motor activity were determined using the rotorod test. […] Normally under these conditions, a mouse can maintain its balance almost indefinitely. In the mouse identification screening study all compounds were given at three dose levels (30, 100, 300 mg/kg) and two time periods (0.5, 4h). Typically, in the MES seizures test one animal was used at 30 mg/kg and 300 mg/kg, and three animals at 100 mg/kg. In the rotorod toxicity test four animals were used at 30 mg/kg, and 300 mg/kg, and eight animals at 100 mg/kg.
The quantitative determination of the median effective (ED50) and toxic doses (TD50) were conducted at previously calculated times of peak effect. Groups of at least eight animals were tested using different doses of test compound until at least two points were determined between 100 and 0% protection and minimal motor impairment. The dose of candidate substance required to produce the defined endpoint in 50% of the animals in each test and the 95% confidence interval were calculated.

[4] = rotorod test, neurologic toxicity in mice; format: in vivo; conditions: mouse, ip, intraperitoneal, at time of peak effect, numbers in parentheses 95% confidence intervals, read-out: Tox TD50
Protocol: as §1

With O=C1NC(=O)C(c2ccccc2)(c2ccccc2)N1 [phenytoin] as the compound, how does the ED50 [1] read?
The ED50 was 6.5 mg/kg.

What about the “Tox TD50” value [2] of the same compound?
Its value is 43 mg/kg.

Which “protective index (in words)” value ([3]; listed as N-Benzyl 2,3-dimethyoxypropionamide) does the source give for COCC(OC)C(=O)NCc1ccccc1 (stereo not shown) [R, S OCH3 CH2 OCH3, N-BENZYL 2,3-DIMETHOXY PROPIONAMIDE] here?
The value was “unexpectedly high protective index”.

And the “protective index (in words)” value ([3]; listed as diether)?
The value was “significantly greater than the P.I. values of phenytoin, phenobarbital and valproate”.

And the “P.I. (protective index, TD50/ED50)” value ([3]; intraperitoneal)?
The value was 9.3.

What about the “P.I., times more effective than that of the dihydroxy compound” value ([3]; intraperitoneal, diether versus dihydroxy compound) of the same compound?
Its value is “greater than 3 times”.

What about the ED50 [1] of the same compound?
Its ED50 is 30 mg/kg.

What about the “anticonvulsant activity / efficacy (in words)” value ([1]; MES) of the same compound?
The value was “much greater efficacy”.

And the “ED50, times more effective than that of the dihydroxy compound” value ([1]; MES, diether versus dihydroxy compound)?
The value was “greater than 3 times”.

And the TD50 [4]?
Its TD50 is 280 mg/kg.

Which TD50 [4] does the source give for COC[C@@H](OC)C(=O)NCc1ccccc1 [R OCH3 CH2 OCH3, (R)-N-Benzyl-2,3-dimethoxypropionamide] here?
Its TD50 is 300 mg/kg.

Which “anticonvulsant activity / efficacy (in words)” value ([1]; MES) does the source give for O=C(NCc1ccccc1)C(O)CO (racemic) [R, S OH CH2 OH, N-Benzyl 2,3-Dihydroxypropionamide] here?
The value was “very low anticonvulsant activity”.

What about the TD50 [4] of the same compound?
Its TD50 is over 300 mg/kg.

What does the source list for CCCC(CCC)C(=O)O [valproate]?
ED50 [1]: 290 mg/kg; Tox TD50 [2]: 480 mg/kg

For CCC1(c2ccccc2)C(=O)NC(=O)NC1=O [phenobarbital], which ED50 [1] is on record?
The ED50 was 22 mg/kg.
